Tests used:
[1] = absorption spectrum (maximum absorption wavelength, molar extinction coefficient); type: physicochemical
[2] = singlet oxygen efficiency test, reference rose bengal; type: physicochemical

SMILES: COCCOCCOCCOCCOCCOCCOCCOCCOCCNC(=O)C1CCC(CNc2c3c4c5c(c(OC)c(=O)c6c(NCC7CCC(C(=O)NCCOCCOCCOCCOCCOCCOCCOCCOCCOC)CC7)cc(OC)c(c7c(OC)cc(O)c(c2=O)c74)c65)C(C(C)=O)C(C)=C3)CC1 (stereo not drawn) [HB-13d-NH-PEG8]
- maximum absorption wavelength [1]: 628 nm
- molar extinction coefficient [1]: 31,500 M^−1cm^−1
- singlet oxygen yield [2]: 32%

SMILES: COc1c2c3c4c(c(NCc5cccc[n+]5CCCC(=O)O)c(=O)c5c(NCc6cccc[n+]6CCCC(=O)O)cc(OC)c(c6c(OC)cc(O)c(c1=O)c63)c54)C=C(C)C2C(C)=O (stereo not drawn) [HB-38c-N—COOH]
- maximum absorption wavelength [1]: 622 nm
- molar extinction coefficient [1]: 21,500 M^−1cm^−1
- singlet oxygen yield [2]: 21%

SMILES: COc1c(O)c2c(=O)cc(OC)c3c4c(OC)cc(=O)c5c(NC6CCCC6C(=O)O)c(NC6CCCC6C(=O)O)c6c(c(c1C(C(C)=O)C(C)=C6)c23)c54 (stereo not drawn) [HB-21a]
- maximum absorption wavelength [1]: 620 nm
- molar extinction coefficient [1]: 23,500 M^−1cm^−1
- singlet oxygen yield [2]: 20%

SMILES: COc1c2c3c4c(c(NCC[N+]56CC[N+](C)(CC5)CC6)c(=O)c5c(O)cc(OC)c(c6c(OC)cc(NCC[N+]78CC[N+](C)(CC7)CC8)c(c1=O)c63)c54)C=C(C)C2C(C)=O (stereo not drawn) [HB-41d]
- maximum absorption wavelength [1]: 625 nm
- molar extinction coefficient [1]: 30,500 M^−1cm^−1
- singlet oxygen yield [2]: 28%

SMILES: COCCOCCOCCOCCOCCNC(=O)C1CCC(CNc2c(O)c3c(=O)cc(OC)c4c5c(OC)cc(=O)c6c(NCC7CCC(C(=O)NCCOCCOCCOCCOCCOC)CC7)c(OC)c7c(c(c2C=C(C)C7)c34)c65)CC1 (stereo not drawn) [HC-13b-NH-PEG4]
- maximum absorption wavelength [1]: 624 nm
- molar extinction coefficient [1]: 30,000 M^−1cm^−1
- singlet oxygen yield [2]: 32%

SMILES: COc1c(O)c2c(=O)cc(OC)c3c4c(OC)cc(=O)c5c(NCCNCCOCCO)c(NCCNCCOCCO)c6c(c(c1C(C(C)=O)C(C)=C6)c23)c54 (stereo not drawn) [HB-5a-PEG1]
- maximum absorption wavelength [1]: 622 nm
- molar extinction coefficient [1]: 29,500 M^−1cm^−1
- singlet oxygen yield [2]: 28%

SMILES: COc1c(O)c2c(=O)cc(OC)c3c4c(OC)cc(=O)c5c(NC(CS)C(=O)O)c(NC(CS)C(=O)O)c6c(c(c1C(C(C)=O)C(C)=C6)c23)c54 (stereo not drawn) [HB-25a]
- maximum absorption wavelength [1]: 625 nm
- molar extinction coefficient [1]: 21,500 M^−1cm^−1
- singlet oxygen yield [2]: 18%

SMILES: COc1c2c3c4c(c(NCCS(=O)(=O)OC)c(=O)c5c(O)cc(OC)c(c6c(OC)cc(NCCS(=O)(=O)OC)c(c1=O)c63)c54)C=C(C)C2C(C)=O (stereo not drawn) [HB-12d]
- maximum absorption wavelength [1]: 624 nm
- molar extinction coefficient [1]: 21,500 M^−1cm^−1
- singlet oxygen yield [2]: 21%

SMILES: COc1c(NCCCC(=O)O)c2c(=O)cc(OC)c3c4c(OC)cc(=O)c5c(O)c(NCCCC(=O)O)c6c(c(c1CC(C)=C6)c23)c54 [HC-8b]
- maximum absorption wavelength [1]: 622 nm
- molar extinction coefficient [1]: 28,000 M^−1cm^−1
- singlet oxygen yield [2]: 25%

SMILES: COc1c(O)c2c(=O)cc(OC)c3c4c(OC)cc(=O)c5c(NCC[N+]67CC[N+](C)(CC6)CC7)c(NCC[N+]67CC[N+](C)(CC6)CC7)c6c(c(c1C(C(C)=O)C(C)=C6)c23)c54 (stereo not drawn) [HB-41a]
- maximum absorption wavelength [1]: 622 nm
- molar extinction coefficient [1]: 32,500 M^−1cm^−1
- singlet oxygen yield [2]: 31%

SMILES: CCNc1c2c3c4c(c(OC)c(=O)c5c(O)cc(OC)c(c6c(OC)cc(NC7CCCC7)c(c1=O)c63)c54)C(C(C)=O)C(C)=C2 (stereo not drawn) [HB-44c]
- maximum absorption wavelength [1]: 624 nm
- molar extinction coefficient [1]: 21,000 M^−1cm^−1
- singlet oxygen yield [2]: 20%

SMILES: CCNNc1c2c3c4c(c(OC)c(=O)c5c(NNCC)cc(OC)c(c6c(OC)cc(O)c(c1=O)c63)c54)C(C(C)=O)C(C)=C2 (stereo not drawn) [HB-36d]
- maximum absorption wavelength [1]: 621 nm
- molar extinction coefficient [1]: 32,000 M^−1cm^−1
- singlet oxygen yield [2]: 32%

SMILES: COc1c2c3c4c(c(NC5CCC(O)CC5)c(=O)c5c(O)cc(OC)c(c6c(OC)cc(NC7CCC(O)CC7)c(c1=O)c63)c54)C=C(C)C2C(C)=O (stereo not drawn) [HB-17d]
- maximum absorption wavelength [1]: 624 nm
- molar extinction coefficient [1]: 25,000 M^−1cm^−1
- singlet oxygen yield [2]: 22%

SMILES: COc1c2c3c4c(c(NCCO)c(=O)c5c(NCCO)cc(OC)c(c6c(OC)cc(O)c(c1=O)c63)c54)C=C(C)C2C(C)=O (stereo not drawn) [HB-2c]
- maximum absorption wavelength [1]: 628 nm
- molar extinction coefficient [1]: 31,000 M^−1cm^−1
- singlet oxygen yield [2]: 30%

SMILES: COCCOCCC(=O)OCC1(Nc2c(NC3(COC(=O)CCOCCOC)CC3)c3c(=O)cc(OC)c4c5c(OC)cc(=O)c6c(O)c(OC)c7c(c(c2C=C(C)C7C(C)=O)c34)c65)CC1 (stereo not drawn) [HB-35a-PEG1]
- maximum absorption wavelength [1]: 624 nm
- molar extinction coefficient [1]: 31,500 M^−1cm^−1
- singlet oxygen yield [2]: 34%

SMILES: COc1c2c3c4c(c(NC5(CO)CC5)c(=O)c5c(O)cc(OC)c(c6c(OC)cc(NC7(CO)CC7)c(c1=O)c63)c54)C=C(C)C2C(C)=O (stereo not drawn) [HB-35d]
- maximum absorption wavelength [1]: 621 nm
- molar extinction coefficient [1]: 31,500 M^−1cm^−1
- singlet oxygen yield [2]: 30%

SMILES: CCNc1c(O)c2c(=O)c(SCCO)c(OC)c3c4c(OC)cc(=O)c5c(NC6CCCC6)c(OC)c6c(c(c1C=C(C)C6C(C)=O)c23)c54 (stereo not drawn) [HB-S-44b]
- maximum absorption wavelength [1]: 622 nm
- molar extinction coefficient [1]: 21,000 M^−1cm^−1
- singlet oxygen yield [2]: 18%

SMILES: CCNc1c2c3c4c(c(OC)c(=O)c5c(O)cc(OC)c(c6c(OC)c(SCCO)c(NC7CCCC7)c(c1=O)c36)c54)C(C(C)=O)C(C)=C2 (stereo not drawn) [HB-S-44c]
- maximum absorption wavelength [1]: 628 nm
- molar extinction coefficient [1]: 21,000 M^−1cm^−1
- singlet oxygen yield [2]: 20%

SMILES: COc1c(O)c2c(=O)cc(OC)c3c4c(OC)cc(=O)c5c(NCC(=O)O)c(NCC(=O)O)c6c(c(c1C(C(C)=O)C(C)=C6)c23)c54 (stereo not drawn) [HB-7a]
- maximum absorption wavelength [1]: 620 nm
- molar extinction coefficient [1]: 26,500 M^−1cm^−1
- singlet oxygen yield [2]: 28%

SMILES: COc1c2c3c4c(c(NCCC5CCC(O)CC5)c(=O)c5c(NCCC6CCC(O)CC6)cc(OC)c(c6c(OC)cc(O)c(c1=O)c63)c54)C=C(C)C2C(C)=O (stereo not drawn) [HB-18c]
- maximum absorption wavelength [1]: 624 nm
- molar extinction coefficient [1]: 23,500 M^−1cm^−1
- singlet oxygen yield [2]: 23%

SMILES: COc1c2c3c4c(c(NC5CCC(C(=O)O)C5)c(=O)c5c(O)cc(OC)c(c6c(OC)cc(NC7CCC(C(=O)O)C7)c(c1=O)c63)c54)C=C(C)C2C(C)=O (stereo not drawn) [HB-19d]
- maximum absorption wavelength [1]: 625 nm
- molar extinction coefficient [1]: 24,000 M^−1cm^−1
- singlet oxygen yield [2]: 20%

SMILES: COCCOCCOCCOCCOCCOCCOCCOCCOCCOCCOCCOCCOC(=O)C1CCCC(Nc2c3c4c5c(c(OC)c(=O)c6c(O)cc(OC)c(c7c(OC)cc(NC8CCCC(C(=O)OCCOCCOCCOCCOCCOCCOCCOCCOCCOCCOCCOCCOC)C8)c(c2=O)c74)c65)C(C(C)=O)C(C)=C3)C1 (stereo not drawn) [HB-15c-PEG12]
- maximum absorption wavelength [1]: 630 nm
- molar extinction coefficient [1]: 33,000 M^−1cm^−1
- singlet oxygen yield [2]: 35%

SMILES: COc1c(O)c2c(=O)cc(OC)c3c4c(OC)cc(=O)c5c(NCCC(=O)O)c(NCCC(=O)O)c6c(c(c1C(C(C)=O)C(C)=C6)c23)c54 (stereo not drawn) [HB-10a]
- maximum absorption wavelength [1]: 620 nm
- molar extinction coefficient [1]: 31,000 M^−1cm^−1
- singlet oxygen yield [2]: 32%

SMILES: COc1c(NCc2cccc[n+]2C)c2c(=O)cc(OC)c3c4c(OC)cc(=O)c5c(O)c(NCc6cccc[n+]6C)c6c(c(c1C(C(C)=O)C(C)=C6)c23)c54 (stereo not drawn) [HB-38b-N^+]
- maximum absorption wavelength [1]: 620 nm
- molar extinction coefficient [1]: 21,000 M^−1cm^−1
- singlet oxygen yield [2]: 20%

— patent US11439707B2, “Hypocrellin derivative substituted both in a peri-position and in 2-position by amino, preparation method, and application thereof” (priority 2017, dated 2022)
